Measured values as given in patent US20150175712A1, “ANTAGONIST TO AN ENZYME AND/OR A METABOLITE OF THE KYNURENINE PATHWAY” (ImmuSmol SAS, priority 2012, published 2015).
Entries after “also recorded” stand apart in the source; their conditions may differ.

Experiments:
tumor = conditions: Muller et al 2005; cited from earlier work
[1] = system: CD4 positive helper T cells; test: Proliferation of helper T cells activated with CD3/CD28 antibodies (CFSE); assay type: cell-based; conditions: 3HAA 100 μM, 96 hours
Method: FIG. 21: Suppression of anti-proliferative properties of 3HAA on helper T cells by a 3HAA monoclonal antibody (1B10). CD4 positive T cells were activated by anti CD3/CD28 antibodies cocktail and incubated for 96 hours with either vehicle, 3HAA at 100 μM or 3HAA (100 μM)+IgG anti 3HAA.
We evaluated the ability of the selected anti 3HAA antibody to block the suppressive effect of 3HAA on helper T cells activated with CD3/CD28 cocktail antibodies. Helper T cells were incubated with or without 3HAA and stained with CFSE (carboxyfluorescein succinimidyl ester). […] The selected anti 3HAA antibody is therefore able to inhibit, in vitro, the suppressive effect of 3HAA, e.g. on helper T cells.

IDO = IDO (Homo sapiens, UniProt P14902); conditions: Pilotte et al 2012; cited from earlier work
IDO, sequence (P14902 whole entry, species assumed): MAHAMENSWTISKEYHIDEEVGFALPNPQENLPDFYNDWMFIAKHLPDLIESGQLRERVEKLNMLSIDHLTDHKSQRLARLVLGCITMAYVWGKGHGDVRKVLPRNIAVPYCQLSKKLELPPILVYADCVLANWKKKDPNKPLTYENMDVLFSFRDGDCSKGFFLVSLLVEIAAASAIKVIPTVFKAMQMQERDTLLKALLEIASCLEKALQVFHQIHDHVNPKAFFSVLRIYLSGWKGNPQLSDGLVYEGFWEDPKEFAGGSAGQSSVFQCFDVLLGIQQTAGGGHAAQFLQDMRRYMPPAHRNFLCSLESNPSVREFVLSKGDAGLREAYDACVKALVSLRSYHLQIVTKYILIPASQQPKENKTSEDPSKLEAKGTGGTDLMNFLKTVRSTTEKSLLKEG

[2] = Pilotte et al 2012; cited from earlier work
mastocytoma = conditions: Pilotte et al 2012; cited from earlier work

## Cn1cc(C[C@H](N)C(=O)O)c2ccccc21 [Clone 1MT, 1-Methyl Tryptophan]
tumor
  anti-tumor benefits when administered alone: weak

## Nc1c(O)cccc1C(=O)O [Clone 3HAA, 3-Hydroxy Anthranilic Acid]
[1]
  Effect of 3HAA on proliferation of activated helper T cells: blocked cell proliferation; also recorded: anergy of T cells was induced

## Fc1ccc2c(/C=C/c3nnn[nH]3)c[nH]c2c1 [LM-10, trans-6-Fluoro-3-[2-(1H-tetrazol-5-yl)vinyl]-1H-indole]
IDO
  IDO inhibition: does not inhibit
[2]
  solubility compared to 1MT: higher
mastocytoma
  benefits in experimental model of mastocytoma: benefits
